Results reported in patent publication US20250241976A1, “ADMINISTRATION OF AN ANTICANCER PEPTIDE” (Verrica Pharmaceuticals, Inc., priority 2024, published 2025).
Where a SMILES comes first, the peptide text is derived from it. [ ]: non-standard residue; d: D form. Dip = N[C@H](C(=O)O)C(c1ccccc1)c1ccccc1

Columns and labels:
[1] = Storage of reconstituted Peptide A solution; type: physicochemical
Method: (§1) Peptide A was provided as the acetate salt, 20 mg of lyophilized powder per vial for injection. The powder was reconstituted in saline to a concentration ranging from 4-20 mg/mL based upon the target dose and volume for each subject. Peptide A was supplied in colorless glass vials (Ph. Eur. hydrolytic class I) fitted with rubber stopper (Ph. Eur. type I).
Peptide A vials (20 mg/vial) were stored at 2-8° C. (36-46° F.) or −20±5° C. (−13 to 5° F.) protected from light at the study site, separated from other drugs. The reconstituted Peptide A solution can be stored for up to 12 hours in a refrigerator at 2-8° C. (36-46° F.). Syringes with Peptide A drawn from the vial can be stored for up to 4 hours at 20-25° C. (68-77° F.) protected from light. Any unused portion was discarded.

[2] = test system: basal cell carcinoma (BCC) lesion; assay: Clinical study: intradermal injection of Peptide A into basal cell carcinoma lesions, with TRAEs, withdrawals and necrosis recorded; type: in vivo, human
Method: This study involved human adults ≥18 years of age with clinically suspected BCC with at least 1 (and up to 5) eligible lesion(s) suitable for biopsy and excision. The size of the lesion(s) were ≥0.5 cm and ≤2 cm in longest diameter prior to punch biopsy or ≥1 cm and ≤2 cm in longest diameter prior to shave biopsy. Histological diagnosis of nodular, micronodular, or superficial BCC, as confirmed by punch or shave biopsy, was performed within 90 days of treatment.
as §1
Peptide A (acetate salt) was administered via intradermal injection into a single target lesion (between ≥0.5 cm and ≤2 cm in longest diameter) using the 1-mL syringe and 30-gauge 0.5-inch needle. The subjects were positioned in a way so that the target lesion lies flat, to avoid any dependent areas that may be susceptible to leakage of the pharmaceutical composition. Subsequent injections for the same lesion were given in remaining nonnecrotic areas of the lesion, as assessed prior to treatment. […]
Cohort 2 was assigned a regimen of 8 mg of Peptide A for each treatment day (with no partitioned administration on any day).
[…] The total 500 μL (8 mg) dosage volume is divided into 2 injections given at least 15 minutes and no more than 30 minutes apart, with 30% (150 μL) administered in the first injection and the remaining 70% (350 μL) with the second injection.
A radial administration method was also used for Cohorts 4 and 5. The formulation with Peptide A is injected intradermally for all injections and subcutaneous injection should be avoided. It is important to ensure adequate and even distribution of Peptide A across the entire base of the lesion. To accomplish adequate and even distribution of Peptide A across the entire lesion: The first 150 μL is injected as centrally as possible such that Peptide A can distribute radially outward; and the second (350 μL) portion is injected in a clockface fashion (i.e., at 12, 3, 6, 9 o'clock as shown in FIG. 1) as needed to ensure uniform distribution into the periphery of the lesion. The needle is inserted at a 10- to 20-degree angle for a flat lesion, or at an increased angle (i.e., greater than 20-degree) for a raised lesion.

Storage time of syringes with Peptide A drawn from the vial ([1]; 20-25° C., protected from light): up to 4 hours
Storage time of reconstituted Peptide A solution ([1]; reconstituted in saline, refrigerator at 2-8° C.): up to 12 hours
Compound: NCCCC[C@H](NC(=O)[C@@H](NC(=O)[C@H](Cc1c[nH]c2ccccc12)NC(=O)[C@H](CCCCN)NC(=O)[C@H](CCCCN)NC(=O)[C@H](Cc1c[nH]c2ccccc12)NC(=O)[C@H](Cc1c[nH]c2ccccc12)NC(=O)[C@H](CCCCN)NC(=O)[C@@H](N)CCCCN)C(c1ccccc1)c1ccccc1)C(N)=O [Peptide A, KKWWKKWDipK-NH2] (H-KKWWKKW[Dip]K-NH2)
Subjects experiencing TRAEs of burning and pain at the injection site ([2]; Cohorts 1 and 2, 4 mg then 8 mg or 8 mg daily, no partitioned administration): Several subjects
Subjects withdrawn from treatment due to TRAEs ([2]; Cohorts 1 and 2, no partitioned administration): Two subjects withdrew
Change in TRAEs ([2]; Cohorts 4 and 5, partitioned (30%/70%, 15-30 min apart) and radial administration, 8 mg in 500 μL): marked decrease
Withdrawal from study treatment due to TRAEs of burning or pain at the injection site ([2]; Cohorts 4 and 5 and expansion cohorts (10, 10, 26, 27 subjects enrolled), partitioned and radial administration, 8 mg): No subjects have withdrawn from study
Treatment status after TRAE ([2]; Subject 3, Cohort 1, W1D2, no partitioned administration, subject withdrawn from treatment): Discontinued
Lesion necrosis status ([2]; Subject 5, Cohort 1, W1D3 after 4 mg W1D1 and 8 mg W1D2, no partitioned administration, no injection given): Complete
TRAEs (pain severity) ([2]; Subject 8, Cohort 2, 8 mg on W1D1, no partitioned administration): experiencing moderate
Duration of pain post-treatment ([2]; Subject 8, Cohort 2, 8 mg, no partitioned administration): about 3-4 hours post-
Treatment status after TRAE ([2]; Subject 8, Cohort 2, W1D2, no partitioned administration, subject withdrew from treatment): Discontinued
TRAEs reported ([2]; Subject 9, Cohort 2, after the W1D2 treatment (8 mg), no partitioned administration, subject continued treatment): injection-site burning
